{"source": "paper PMC4076284", "about": "“A Characteristic Back Support Structure in the Bisphenol A-Binding Pocket in the Human Nuclear Receptor ERRγ” (PLoS ONE, 2014)", "key": {"[1]": {"target": "T1, Leu345Ile-ERRγ mutant receptor (GST-fused LBD) (Homo sapiens, UniProt P62508, L345I)", "T1 construct": "wild-type ERRγ-LBD encoding 222-458 residues; made in house; host or cells: E. coli BL21", "T1 sequence (P62508 222-458 L345I limits assumed)": "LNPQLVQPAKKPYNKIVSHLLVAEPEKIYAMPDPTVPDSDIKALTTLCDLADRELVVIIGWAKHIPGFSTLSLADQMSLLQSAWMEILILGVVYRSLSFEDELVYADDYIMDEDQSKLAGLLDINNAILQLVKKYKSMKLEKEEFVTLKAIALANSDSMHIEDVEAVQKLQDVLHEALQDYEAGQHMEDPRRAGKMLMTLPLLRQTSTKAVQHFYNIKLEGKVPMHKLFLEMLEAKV", "assay": "Competitive binding assay using [^3H]BPA", "experimental": "(§1) Wild-type and mutant ERRγ-LBD proteins were expressed as glutathione S-transferase (GST)-fused preparations in E. coli BL21 as described previously [1], [24], [25]. […] After loading the protein solution, the column was incubated for 1 h at 4°C, and then washed three times with PBS containing 0.5% (v/v) Triton X-100 and once with sonication buffer (50 mM Tris-HCl (pH 8.0), 50 mM NaCl, 1 mM EDTA, and 1 mM dithiothreitol). […] The protein concentrations were determined by the Bradford method [26].\n(§2) Competitive binding assays were performed in the presence of GST-fused wild-type ERRγ-LBD or its mutants at the most appropriate concentration of each receptor. […] Radioactivity was determined on a liquid scintillation counter TopCount NXT (PerkinElmer Life Sciences Japan Co., Ltd., Tokyo, Japan). To estimate the binding affinity, the IC50 values (the concentrations for the half-maximal inhibition) were calculated from the dose-response curves evaluated by the nonlinear analysis program ALLFIT [30]. Each assay was performed at least three times."}, "[2]": {"target": "T2, Asn346Gly-ERRγ mutant receptor (GST-fused LBD) (Homo sapiens, UniProt P62508, N346G)", "T2 construct": "wild-type ERRγ-LBD encoding 222-458 residues; made in house; host or cells: E. coli BL21", "T2 sequence (P62508 222-458 N346G)": "as the sequence (P62508 222-458 L345I limits assumed) above, with I124L, N125G counted along it", "assay": "Competitive binding assay using [^3H]BPA", "experimental": "as §1, §2"}, "[3]": {"target": "T3, Asn346Tyr-ERRγ mutant receptor (GST-fused LBD) (Homo sapiens, UniProt P62508, N346Y)", "T3 construct": "wild-type ERRγ-LBD encoding 222-458 residues; made in house; host or cells: E. coli BL21", "T3 sequence (P62508 222-458 N346Y)": "as the sequence (P62508 222-458 L345I limits assumed) above, with I124L, N125Y counted along it", "assay": "Competitive binding assay using [^3H]BPA", "experimental": "as §1, §2"}, "[4]": {"target": "T4, Val313Ala-ERRγ mutant receptor (GST-fused LBD) (Homo sapiens, UniProt P62508, V313A)", "T4 construct": "wild-type ERRγ-LBD encoding 222-458 residues was generated by PCR; made in house; host or cells: E. coli BL21", "T4 sequence (P62508 222-458 V313A)": "as the sequence (P62508 222-458 L345I limits assumed) above, with V92A, I124L counted along it", "assay": "Competitive binding assay using [^3H]BPA", "settings": "competitive binding (Table 3, BPA value from ref 24)", "experimental": "as §1, §2"}, "[5]": {"target": "T5, Tyr330Ala-ERRγ mutant receptor (GST-fused LBD) (Homo sapiens, UniProt P62508, Y330A)", "T5 construct": "wild-type ERRγ-LBD encoding 222-458 residues was generated by PCR; made in house; host or cells: E. coli BL21", "T5 sequence (P62508 222-458 Y330A)": "as the sequence (P62508 222-458 L345I limits assumed) above, with Y109A, I124L counted along it", "assay": "Competitive binding assay using [^3H]BPA", "experimental": "as §1, §2"}, "[6]": {"target": "T6, Tyr330Phe-ERRγ mutant receptor (GST-fused LBD) (Homo sapiens, UniProt P62508, Y330F)", "T6 construct": "wild-type ERRγ-LBD encoding 222-458 residues was generated by PCR; made in house; host or cells: E. coli BL21", "T6 sequence (P62508 222-458 Y330F)": "as the sequence (P62508 222-458 L345I limits assumed) above, with Y109F, I124L counted along it", "assay": "Competitive binding assay using [^3H]BPA", "experimental": "as §1, §2"}, "ERRγ mutant receptors": {"system": "ERRγ mutant receptors", "assay": "[^3H]BPA saturation and/or competitive binding: ranges stated over several ERRγ mutants or both assays", "set-up": "species or system human", "settings": "for Activity decrements vs wild-type: competitive binding (Table 2)", "protocol": "The reaction mixture was incubated at 4°C for 2 h with the receptor proteins—GST-fused wild-type ERRγ-LBD or its mutants—in 100 µl of binding buffer [10 mM HEPES (pH 7.5), 50 mM NaCl, 2 mM MgCl2, 1 mM EDTA, 2 mM CHAPS, and 2 mg/ml γ-globulin]. The assay was performed with or without the addition of unlabelled BPA (final concentration of 1.0×10^-5 M) to quantify the specific and nonspecific binding. After incubation with 100 µl of 1% dextran-coated charcoal (DCC) (Sigma-Aldrich) in PBS (pH 7.4) for 10 min at 4°C, the DCC-absorbed free radio-ligand was removed by the direct vacuum filtration method using a 96-well filtration plate (MultiScreen^HTS HV, 0.45 µm pore size; Millipore, Billerica, MA, USA) for the bound/free separation. Radioactivity was determined on a liquid scintillation counter (LS6500; Beckman Coulter, Fullerton, CA, USA).\nThe saturation binding assay was performed at least three times.\nEach assay was performed at least three times."}, "[7]": {"target": "T7, Ile310Ala-ERRγ mutant receptor (GST-fused LBD) (Homo sapiens, UniProt P62508, I310A)", "T7 construct": "wild-type ERRγ-LBD encoding 222-458 residues was generated by PCR; made in house; host or cells: E. coli BL21", "T7 sequence (P62508 222-458 I310A limits assumed)": "as the sequence (P62508 222-458 L345I limits assumed) above, with I89A, I124L counted along it", "settings": "BPA value re-collected from the previous report, read-out: Receptor binding potency IC50; cited from earlier work"}, "[8]": {"target": "T4, Val313Ala-ERRγ mutant receptor (GST-fused LBD)", "settings": "BPA value re-collected from the previous report, read-out: Receptor binding potency IC50; cited from earlier work"}, "[9]": {"target": "T8, Val313Leu-ERRγ mutant receptor (GST-fused LBD) (Homo sapiens, UniProt P62508, V313L)", "T8 construct": "wild-type ERRγ-LBD encoding 222-458 residues was generated by PCR; made in house; host or cells: E. coli BL21", "T8 sequence (P62508 222-458 V313L limits assumed)": "as the sequence (P62508 222-458 L345I limits assumed) above, with V92L, I124L counted along it", "settings": "BPA value re-collected from the previous report, read-out: Receptor binding potency IC50; cited from earlier work"}, "[10]": {"target": "GST-fused wild-type ERRγ-LBD (Homo sapiens, UniProt P62508)", "sequence (P62508 222-458)": "as the sequence (P62508 222-458 L345I limits assumed) above, with I124L counted along it", "assay": "biochemical", "settings": "[^3H]BPA 5 nM, 4°C, 2 h", "experimental": "as §1, §2"}, "[11]": {"target": "Leu342Val-ERRγ mutant receptor (GST-fused LBD) (Homo sapiens, UniProt P62508, L342V)", "sequence (P62508 222-458 L342V limits assumed)": "as the sequence (P62508 222-458 L345I limits assumed) above, with L121V, I124L counted along it", "assay": "biochemical", "experimental": "as §1, §2"}, "[12]": {"target": "Leu342Ile-ERRγ mutant receptor (GST-fused LBD) (Homo sapiens, UniProt P62508, L342I)", "sequence (P62508 222-458 L342I limits assumed)": "as the sequence (P62508 222-458 L345I limits assumed) above, with L121I, I124L counted along it", "assay": "biochemical", "experimental": "as §1, §2"}, "[13]": {"target": "Leu345Ala-ERRγ mutant receptor (GST-fused LBD) (Homo sapiens, UniProt P62508, L345A)", "sequence (P62508 222-458 L345A limits assumed)": "as the sequence (P62508 222-458 L345I limits assumed) above, with I124A counted along it", "assay": "biochemical", "experimental": "as §1, §2"}, "[14]": {"target": "Leu345Val-ERRγ mutant receptor (GST-fused LBD) (Homo sapiens, UniProt P62508, L345V)", "sequence (P62508 222-458 L345V limits assumed)": "as the sequence (P62508 222-458 L345I limits assumed) above, with I124V counted along it", "assay": "biochemical", "experimental": "as §1, §2"}, "[15]": {"target": "Asn346Ala-ERRγ mutant receptor (GST-fused LBD) (Homo sapiens, UniProt P62508, N346A)", "sequence (P62508 222-458 N346A)": "as the sequence (P62508 222-458 L345I limits assumed) above, with I124L, N125A counted along it", "assay": "biochemical", "experimental": "as §1, §2"}, "[16]": {"target": "Asn346Gln-ERRγ mutant receptor (GST-fused LBD) (Homo sapiens, UniProt P62508, N346Q)", "sequence (P62508 222-458 N346Q)": "as the sequence (P62508 222-458 L345I limits assumed) above, with I124L, N125Q counted along it", "assay": "biochemical", "experimental": "as §1, §2"}, "[17]": {"target": "Ile349Ala-ERRγ mutant receptor (GST-fused LBD) (Homo sapiens, UniProt P62508, I349A)", "sequence (P62508 222-458 I349A limits assumed)": "as the sequence (P62508 222-458 L345I limits assumed) above, with I124L, I128A counted along it", "assay": "biochemical", "experimental": "as §2"}, "[18]": {"target": "Ile349Val-ERRγ mutant receptor (GST-fused LBD) (Homo sapiens, UniProt P62508, I349V)", "sequence (P62508 222-458 I349V limits assumed)": "as the sequence (P62508 222-458 L345I limits assumed) above, with I124L, I128V counted along it", "assay": "biochemical", "experimental": "as §2"}, "[19]": {"target": "Ile349Leu-ERRγ mutant receptor (GST-fused LBD) (Homo sapiens, UniProt P62508, I349L)", "sequence (P62508 222-458 I349L)": "as the sequence (P62508 222-458 L345I limits assumed) above, with I124L, I128L counted along it", "assay": "biochemical", "experimental": "as §2"}, "[20]": {"target": "T9, Lys430Ala-ERRγ mutant receptor (GST-fused LBD) (Homo sapiens, UniProt P62508, K430A)", "T9 sequence (P62508 222-458 K430A)": "as the sequence (P62508 222-458 L345I limits assumed) above, with I124L, K209A counted along it", "assay": "biochemical", "experimental": "as §1, §2"}, "[21]": {"target": "T10, His434Phe-ERRγ mutant receptor (GST-fused LBD) (Homo sapiens, UniProt P62508, H434F)", "T10 sequence (P62508 222-458 H434F)": "as the sequence (P62508 222-458 L345I limits assumed) above, with I124L, H213F counted along it", "assay": "biochemical", "experimental": "as §1, §2"}, "[22]": {"target": "T9, Lys430Ala-ERRγ mutant receptor (GST-fused LBD)", "settings": "heterogeneous binding assay using [^3H]BPA", "experimental": "as §1, §2"}, "[23]": {"target": "T10, His434Phe-ERRγ mutant receptor (GST-fused LBD)", "settings": "heterogeneous competitive binding", "experimental": "as §1, §2"}, "[24]": {"settings": "read-out: Receptor binding potency IC50"}}}
{"smiles": "CC(C)(c1ccc(O)cc1)c1ccc(O)cc1", "note": "[BPA, bisphenol A]", "values": [{"measurement": "Decrease in binding vs wild-type", "setting": "[1]; Leu345Ile mutant, homologous competitive binding", "value": "approximately 30 fold"}, {"measurement": "IC50", "setting": "[1]; [24]", "value": "0.158 ± 0.0198", "unit": "µM"}, {"measurement": "Binding affinity relative to the wild-type ERRγ (IC50)", "setting": "[2]; Asn346Gly mutant, homologous competitive binding", "value": "ca. 12%"}, {"measurement": "IC50", "setting": "[2]; [24]", "value": "0.0424 ± 0.00544", "unit": "µM"}, {"measurement": "Reduction in binding affinity vs wild-type", "setting": "[3]; Asn346Tyr mutant, competitive binding", "value": "approximately 9 fold"}, {"measurement": "IC50", "setting": "[3]; [24]", "value": "0.0452 ± 0.00891", "unit": "µM"}, {"measurement": "Reduction in binding affinities vs wild-type", "setting": "[4]", "value": "approximately 5 fold"}, {"measurement": "Reduction in IC50 value vs wild-type", "setting": "[5]; Tyr330Ala mutant, homologous competitive binding", "value": "more than 60 fold"}, {"measurement": "IC50", "setting": "[5]; [24]", "value": "0.361 ± 0.0393", "unit": "µM"}, {"measurement": "Reduction in IC50 value vs wild-type", "setting": "[6]; Tyr330Phe mutant, homologous competitive binding", "value": "approximately 3 fold"}, {"measurement": "IC50", "setting": "[6]; [24]", "value": "0.0161 ± 0.00058", "unit": "µM"}, {"measurement": "Reduced binding affinity vs wild-type", "setting": "ERRγ mutant receptors; Asn346Ala mutant, saturation and competitive binding (Tables 1 and 2)", "value": "2–4 times"}, {"measurement": "Reduction in the affinity vs wild-type", "setting": "ERRγ mutant receptors; Asn346Gln mutant, saturation and competitive binding (Tables 1 and 2)", "value": "3-10 fold"}, {"measurement": "Activity decrements vs wild-type", "setting": "ERRγ mutant receptors; Asn346 mutant receptors (Ala, Gly, Gln, Tyr)", "value": "4.0–11.3 times"}, {"measurement": "Reduction in affinity vs wild-type", "setting": "ERRγ mutant receptors; Ile349Ala mutant, saturation and competitive binding (Tables 1 and 2)", "value": "3-4 fold"}, {"measurement": "Activity decrements vs wild-type", "setting": "ERRγ mutant receptors; Ile349Val and Ile349Leu mutants", "value": "110-135%"}, {"measurement": "Reduction in IC50 value vs wild-type", "setting": "ERRγ mutant receptors; Leu342Val and Leu342Ile mutants, homologous competitive binding (Table 2)", "value": "5–7 fold"}, {"measurement": "Reduction in the binding affinity vs wild-type", "setting": "ERRγ mutant receptors; Leu342Val and Leu342Ile mutants, saturation binding (Table 1)", "value": "3–4 fold"}, {"measurement": "IC50", "setting": "[7]", "value": "0.0219 ± 0.00099", "unit": "µM"}, {"measurement": "IC50", "setting": "[8]", "value": "0.0268 ± 0.00212", "unit": "µM"}, {"measurement": "IC50", "setting": "[9]", "value": "0.016 ± 0.00141", "unit": "µM"}, {"measurement": "IC50", "setting": "[10]; Receptor binding potency IC50, wild-type ERRγ (Table 2)", "value": "0.00496 ± 0.00071", "unit": "µM"}, {"measurement": "IC50", "setting": "[10]; Receptor binding potency IC50, wild-type ERRγ (Table 3, back support series)", "value": "0.00564 ± 0.00017", "unit": "µM"}, {"measurement": "IC50", "setting": "[11]", "value": "0.0347 ± 0.00538", "unit": "µM"}, {"measurement": "IC50", "setting": "[12]", "value": "0.0245 ± 0.00453", "unit": "µM"}, {"measurement": "IC50", "setting": "[13]", "value": "0.0606 ± 0.0112", "unit": "µM"}, {"measurement": "IC50", "setting": "[14]", "value": "0.154 ± 0.0175", "unit": "µM"}, {"measurement": "IC50", "setting": "[15]", "value": "0.0201 ± 0.00341", "unit": "µM"}, {"measurement": "IC50", "setting": "[16]", "value": "0.0561 ± 0.00742", "unit": "µM"}, {"measurement": "IC50", "setting": "[17]", "value": "0.0201 ± 0.00324", "unit": "µM"}, {"measurement": "IC50", "setting": "[18]", "value": "0.0117 ± 0.0015", "unit": "µM"}, {"measurement": "IC50", "setting": "[19]", "value": "0.0104 ± 0.00064", "unit": "µM"}, {"measurement": "IC50", "setting": "[20]", "value": "0.0097 ± 0.00037", "unit": "µM"}, {"measurement": "IC50", "setting": "[21]", "value": "0.0137 ± 0.00066", "unit": "µM"}]}
{"smiles": "CC/C(=C(\\c1ccc(O)cc1)c1ccc(OCCN(C)C)cc1)c1ccccc1", "note": "[4-OHT, 4-hydroxytamoxifen]", "values": [{"measurement": "Reinforced binding potency vs wild-type", "setting": "[22]", "value": "about 40%"}, {"measurement": "Reduction in receptor-binding potency vs wild-type", "setting": "[23]", "value": "more than 40 fold"}]}
